Results on eleven compounds are retold here after US20120177742A1, “NANOPARTICLE AND SURFACE-MODIFIED PARTICULATE COATINGS, COATED BALLOONS, AND METHODS THEREFORE” (MICELL TECHNOLOGIES, INC., priority 2010, published 2012).

The series is described as follows: Rapamycin coating affinity testing: distribution between solid and liquid phases with surfactant in water (UV-Vis). The series is classed as physicochemical. As to conditions: for Cal. Rapa (Sediment) / Cal. Rapa (Supernate): calculated from UV-Vis absorbance; for Cal. Rapa (Sediment): in mg (unit assumed); for Cal. Rapa (Supernate): unit assumed; for total (% original) / total (% of original): percent recovery of initial rapamycin loading. The text has this:
One method of applying a positive surface charge to the coating is to add DMAB to the coating such that it is on its surface, at least. […] The coating is then sintered according to the RESS process. […] Care should be taken in certain embodiments to optimize the DMAB's application to the balloon and to handle the balloon thereafter to keep the DMAB from washing off. […] The initial mass of rapamycin is shown in the column labeled “Original rapa.” The supernatant (liquid phase) contains the material of interest as it is drug particles coated with the surfactant modifier. The values presented in the columns labeled “Cal. Rapa” are calculated from the UV-Vis absorbance spectrum of the sediment or supernatant respectively. The ratio of these two values determined the partition coefficient between the sediment and supernatant (reported in the column labeled “ratio”).
The initial mass of rapamycin is shown in the column labeled “Original rapa.” The supernatant (liquid phase) contains the material of interest as it is drug particles coated with the surfactant modifier. The values presented in the columns labeled “Cal. Rapa” are calculated from the UV-Vis absorbance spectrum of the sediment or supernatant respectively. The ratio of these two values determined the partition coefficient between the sediment and supernatant (reported in the column labeled “ratio”).

[1] abbreviates: 1:1 Surfactant to Rapa (w/w), 10x dilution in water.
The mark [2] stands for this setting: 1:1 Surfactant to Rapa, 10x dilution.
Where [3] appears, read: 1:1 Surfactant to Rapa, 10x dilution, partition between supernatant and sediment.
Where [4] appears, read: 1:10 Surfactant to Rapa (w/w), 100x dilution in water.
The mark [5] stands for this setting: 1:10 Surfactant to Rapa, 100x dilution.
The mark [6] stands for this setting: 10:1 Surfactant to Rapa (w/w), 6x dilution in water.
Where [7] appears, read: 10:1 Surfactant to Rapa, 6x dilution.

Marks after values point to notes of the source that are not given here.

For the compound `CCCCCCCCCCCC[N+](C)(C)CCCCCCCCCCCC.[Br-]` [DMAB, didodecyldimethylammonium bromide], the Sediment wt came out at 2.2 mg under setting [1], 8.52 mg under setting [4] and 3.73 mg under setting [6]. Moreover, the “Cal. Rapa (Sediment)” value is 1.23 under setting [2], 7.23 under setting [5] and 1.23 under setting [7]. Further, the Cal. Rapa (Supernate) is, setting by setting: under setting [2], 0.64 mg; under setting [5], 0.4 mg; under setting [7], 1.02 mg. Moreover, the ratio super/sed under setting [3] was 0.52, the ratio super/sed under setting [5] is 0.06 and the ratio super/sed under setting [7] amounted to 0.83. Besides, the “total (% original)” value under setting [2] was 98.4%. Further, the “total (% of original)” value under setting [5] was determined as 79.5% and the “total (% of original)” value under setting [7] was determined as 107.1%.
In turn, `CCCCCCCCCCCCCC[N+](C)(C)CCCCCCCCCCCCCC.[Br-]` [Dimethylditetradecylammonium bromide, Dimethylditetradecyl Ammonium bromide] gave a Sediment wt under setting [1] of 2.28 mg. Moreover, under setting [2], the “Cal. Rapa (Sediment)” value is given as 1.9, the Cal. Rapa (Supernate) is 0.59 mg and the “total (% original)” value turned out to be 113.2%. Also, the ratio super/sed under setting [3] was 0.31. This compound came in with a Sediment wt under setting [6] of 1.9 mg. Further, under setting [7], the ratio super/sed is recorded as 1.42, the “Cal. Rapa (Sediment)” value is on record as 0.85, the Cal. Rapa (Supernate) was 1.21 mg and the “total (% of original)” value is 110.2%.
On to `CCCCCCCCCCCC[N+](C)(C)C.[Br-]` [Dodecyltrimethylammonium Bromide, Dodecyltrimethyl Ammonium Bromide], for which the Sediment wt under setting [1] amounted to 1.99 mg, the Sediment wt under setting [4] came out at 7.7 mg and the Sediment wt under setting [6] is listed as 2.56 mg. Further, the “Cal. Rapa (Sediment)” value is, setting by setting: under setting [2], 1.65; under setting [5], 6.6; under setting [7], 1.2. The Cal. Rapa (Supernate) runs as follows: under setting [2], 0.5 mg; under setting [5], 1.33 mg; under setting [7], 0.78 mg. Further, the ratio super/sed is on record as 0.30 under setting [3], 0.20 under setting [5] and 0.65 under setting [7]. Also, the “total (% original)” value under setting [2] is 108.6%. In addition, the “total (% of original)” value stood at 81.9% under setting [5] and 87.6% under setting [7].
With `CCCCCCCCCCCCCCCC[N+](C)(C)CC.[Br-]` [Ethylhexadecyldimethylammonium Bromide], the Sediment wt was 3.85 mg under setting [1], 8.6 mg under setting [4] and 3.21 mg under setting [6]. Further, the “Cal. Rapa (Sediment)” value under setting [2] is listed as 1.37, the “Cal. Rapa (Sediment)” value under setting [5] was 6.86 and the “Cal. Rapa (Sediment)” value under setting [7] is 0.04*. Also, the Cal. Rapa (Supernate) runs as follows: under setting [2], 0.33 mg; under setting [5], 1.05 mg; under setting [7], 1.26 mg. Besides, the ratio super/sed turned out to be 0.24 under setting [3], 0.15 under setting [5] and 31.50 under setting [7]. Under setting [2], the “total (% original)” value came to 89.5%. Further, the “total (% of original)” value by setting is: under setting [5], 80.2%; under setting [7], 59.6%.
The compound `CCCC[N+](CCCC)(CCCC)CCCC.[I-]` [Tetrabutylammonium iodide] registered a Sediment wt under setting [1] of 2.1 mg. Moreover, under setting [2], the “Cal. Rapa (Sediment)” value is 1.97, the Cal. Rapa (Supernate) was 0.6 mg and the “total (% original)” value is listed as 114.2%. Further, the ratio super/sed under setting [3] is 0.30. Further, under setting [6], the Sediment wt is listed as 2.05 mg. In addition, under setting [7], the ratio super/sed was determined as 0.39, the “Cal. Rapa (Sediment)” value is 1.07, the Cal. Rapa (Supernate) is 0.42 mg and the “total (% of original)” value is recorded as 80.1%.
On to `CCCCCCCCCCCC[N+](CCCCCCCCCCCC)(CCCCCCCCCCCC)CCCCCCCCCCCC.[Br-]` [Tetradodecylammoniumbromid, Tetradodecylammonium bromide], for which, under setting [1], the Sediment wt stood at 6.31 mg. Also, under setting [2], the “Cal. Rapa (Sediment)” value was 1.51, the Cal. Rapa (Supernate) was 0.25 mg and the “total (% original)” value came to 88.0%. The ratio super/sed under setting [3] amounted to 0.17. Further, the Sediment wt under setting [6] is on record as 3.6 mg. For the same compound, under setting [7], the ratio super/sed is given as 0.31, the “Cal. Rapa (Sediment)” value was 1.24, the Cal. Rapa (Supernate) was 0.39 mg and the “total (% of original)” value worked out at 73.1%.
Poly Histidine: the Sediment wt under setting [1] is 7.21 mg, the Sediment wt under setting [4] worked out at 7.9 mg and the Sediment wt under setting [6] is 2.85 mg. Also, the “Cal. Rapa (Sediment)” value under setting [2] is on record as 1.61, the “Cal. Rapa (Sediment)” value under setting [5] is given as 7.06 and the “Cal. Rapa (Sediment)” value under setting [7] is 0.94. Further, the Cal. Rapa (Supernate) is 0.32 mg under setting [2], 1.29 mg under setting [5] and 0.28 mg under setting [7]. For the same compound, the ratio super/sed under setting [3] was 0.20, the ratio super/sed under setting [5] came to 0.18 and the ratio super/sed under setting [7] came to 0.30. Also, the “total (% original)” value under setting [2] is given as 92.8%. Further, the “total (% of original)” value under setting [5] was found to be 78.8% and the “total (% of original)” value under setting [7] is 65.6%.
Consider “Poly-L-Arginine (average or nominal MW of about 5,000 to about 15,000 Da) [Poly Arginine 5,000-15,000]”, for which the Sediment wt reads like this: under setting [1], 3.72 mg; under setting [4], 6.5 mg; under setting [6], 5.11 mg. Besides, the “Cal. Rapa (Sediment)” value is recorded as 1.24 under setting [2], 5.36 under setting [5] and 1.1 under setting [7]. Moreover, the Cal. Rapa (Supernate) is, setting by setting: under setting [2], 0.3 mg; under setting [5], 1.15 mg; under setting [7], 0.51 mg. Moreover, the ratio super/sed reads like this: under setting [3], 0.24; under setting [5], 0.21; under setting [7], 0.46. The “total (% original)” value under setting [2] stood at 72.6%. The “total (% of original)” value under setting [5] was 66.2% and the “total (% of original)” value under setting [7] worked out at 84.3%.
Consider “Poly-L-Arginine (average or nominal MW of about 70,000 Da) [Poly Arginine 70,000]”, for which the Sediment wt is, setting by setting: under setting [1], 11.7 mg; under setting [4], 7.9 mg; under setting [6], 2.81 mg. The “Cal. Rapa (Sediment)” value is given as 1.49 under setting [2], 6.95 under setting [5] and 1.18 under setting [7]. Also, the Cal. Rapa (Supernate) runs as follows: under setting [2], 0.73 mg; under setting [5], 1.01 mg; under setting [7], 0.21 mg. Moreover, the ratio super/sed under setting [3] is recorded as 0.49, the ratio super/sed under setting [5] was 0.15 and the ratio super/sed under setting [7] is recorded as 0.18. Also, the “total (% original)” value under setting [2] came out at 100.9%. In addition, the “total (% of original)” value under setting [5] was 77.9% and the “total (% of original)” value under setting [7] is 72.0%.
Regarding “Poly-L-Lysine (average or nominal MW of about 28,200 Da) [Poly Lysin 28,200]”, the Sediment wt came to 4.89 mg under setting [1], 7.4 mg under setting [4] and 4.3 mg under setting [6]. The “Cal. Rapa (Sediment)” value reads like this: under setting [2], 1.36; under setting [5], 7; under setting [7], 1.2. For the same compound, the Cal. Rapa (Supernate) under setting [2] was 0.35 mg, the Cal. Rapa (Supernate) under setting [5] is 0.74 mg and the Cal. Rapa (Supernate) under setting [7] was 0.13 mg. Besides, the ratio super/sed by setting is: under setting [3], 0.26; under setting [5], 0.11; under setting [7], 0.11. Further, the “total (% original)” value under setting [2] came to 85.9%. The “total (% of original)” value is 80.2% under setting [5] and 63.0% under setting [7].
Take “Poly-L-Lysine (average or nominal MW of about 67,000 Da) [Poly Lisine 66,700]”: the Sediment wt under setting [1] is listed as 1.85 mg. Under setting [2], the “Cal. Rapa (Sediment)” value was 1.43, the Cal. Rapa (Supernate) is 0.33 mg and the “total (% original)” value was determined as 93.6%. Besides, under setting [3], the ratio super/sed came to 0.23. Under setting [6], this compound yielded a Sediment wt of 2.9 mg. Under setting [7], the ratio super/sed is on record as 0.10, the “Cal. Rapa (Sediment)” value is 1.2, the Cal. Rapa (Supernate) is 0.12 mg and the “total (% of original)” value is recorded as 55.2%.
